{
  "source": "patent US9809532B2",
  "about": "“Uses of histone acetyltransferase activators” (THE TRUSTEES OF COLUMBIA UNIVERSITY IN THE CITY OF NEW YORK, priority 2011, dated 2017)",
  "key": {"BDNF": {"test_system": "BDNF", "test": "BDNF levels in hippocampi of Aβ-infused mice", "assay_type": "in vivo", "conditions": "for hippocampal BDNF levels after Aβ infusion: 20 mg/kg, i.p., 90 min before harvesting, Aβ-infused mice", "from_the_text": "3(1): p. 12-29; Caccamo, A., et al., CBP gene transfer increases BDNF levels and ameliorates learning and memory deficits in a mouse model of Alzheimer's disease. Proc Natl Acad Sci USA, 2010. 107(52): p. 22687-92; each herein incorporated by reference in its entirety). […] The Journal of Neuroscience: The Official Journal of the Society for Neuroscience, 2007. 27(10): p. 2628-35; each herein incorporated by reference in its entirety). Thus, preliminary studies on Compound 1 efficacy were extended to BDNF. BDNF levels in the hippocampi of Aβ-infused mice were measured compared to vehicle infused animals. Consistent with the decrease in BDNF levels in brains of AD patients and animal models of AD, a reduction of BDNF levels following Aβ infusion was found (FIG. 23)."}, "HDAC6": {"biological_target": "T1, HDAC6 (Homo sapiens, UniProt Q9UBN7)", "T1 sequence (Q9UBN7 1-1215)": "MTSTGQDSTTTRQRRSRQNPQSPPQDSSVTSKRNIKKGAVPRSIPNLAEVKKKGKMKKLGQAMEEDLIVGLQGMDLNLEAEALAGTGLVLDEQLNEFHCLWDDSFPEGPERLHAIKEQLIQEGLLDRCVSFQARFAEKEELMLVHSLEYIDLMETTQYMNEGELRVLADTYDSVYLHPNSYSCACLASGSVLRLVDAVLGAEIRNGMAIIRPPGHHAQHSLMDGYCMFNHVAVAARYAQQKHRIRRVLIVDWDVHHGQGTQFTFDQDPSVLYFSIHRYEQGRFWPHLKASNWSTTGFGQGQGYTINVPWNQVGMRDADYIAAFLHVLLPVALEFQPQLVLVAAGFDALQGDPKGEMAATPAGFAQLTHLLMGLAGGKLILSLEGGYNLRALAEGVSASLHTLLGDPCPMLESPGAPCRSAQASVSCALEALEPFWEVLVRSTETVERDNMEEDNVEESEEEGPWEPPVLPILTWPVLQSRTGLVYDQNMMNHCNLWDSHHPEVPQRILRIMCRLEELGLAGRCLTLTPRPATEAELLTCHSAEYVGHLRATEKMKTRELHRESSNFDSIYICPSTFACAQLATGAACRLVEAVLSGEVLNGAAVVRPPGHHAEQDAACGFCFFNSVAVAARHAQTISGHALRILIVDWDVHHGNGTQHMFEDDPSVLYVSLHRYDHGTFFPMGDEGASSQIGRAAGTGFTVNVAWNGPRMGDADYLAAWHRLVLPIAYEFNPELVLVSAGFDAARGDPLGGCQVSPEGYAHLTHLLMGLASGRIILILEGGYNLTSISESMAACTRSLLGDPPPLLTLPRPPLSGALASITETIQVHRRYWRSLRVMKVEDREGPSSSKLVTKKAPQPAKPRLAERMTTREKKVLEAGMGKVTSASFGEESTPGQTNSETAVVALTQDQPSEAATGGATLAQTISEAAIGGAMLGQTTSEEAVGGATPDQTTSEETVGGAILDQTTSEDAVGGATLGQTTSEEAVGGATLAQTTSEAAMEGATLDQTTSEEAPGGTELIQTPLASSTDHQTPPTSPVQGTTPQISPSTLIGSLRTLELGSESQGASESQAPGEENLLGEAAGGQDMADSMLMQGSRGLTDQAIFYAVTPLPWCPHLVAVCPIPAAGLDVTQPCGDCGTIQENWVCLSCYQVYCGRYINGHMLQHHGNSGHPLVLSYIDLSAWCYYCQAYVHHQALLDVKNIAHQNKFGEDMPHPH", "test": "HDAC6 activity assay (fluorescence)", "conditions": "Compound 1 Log [nM] 4.0; Repeat1/Repeat2"}, "HDAC7": {"biological_target": "T2, HDAC7 (Homo sapiens, UniProt Q8WUI4)", "T2 sequence (Q8WUI4 1-952)": "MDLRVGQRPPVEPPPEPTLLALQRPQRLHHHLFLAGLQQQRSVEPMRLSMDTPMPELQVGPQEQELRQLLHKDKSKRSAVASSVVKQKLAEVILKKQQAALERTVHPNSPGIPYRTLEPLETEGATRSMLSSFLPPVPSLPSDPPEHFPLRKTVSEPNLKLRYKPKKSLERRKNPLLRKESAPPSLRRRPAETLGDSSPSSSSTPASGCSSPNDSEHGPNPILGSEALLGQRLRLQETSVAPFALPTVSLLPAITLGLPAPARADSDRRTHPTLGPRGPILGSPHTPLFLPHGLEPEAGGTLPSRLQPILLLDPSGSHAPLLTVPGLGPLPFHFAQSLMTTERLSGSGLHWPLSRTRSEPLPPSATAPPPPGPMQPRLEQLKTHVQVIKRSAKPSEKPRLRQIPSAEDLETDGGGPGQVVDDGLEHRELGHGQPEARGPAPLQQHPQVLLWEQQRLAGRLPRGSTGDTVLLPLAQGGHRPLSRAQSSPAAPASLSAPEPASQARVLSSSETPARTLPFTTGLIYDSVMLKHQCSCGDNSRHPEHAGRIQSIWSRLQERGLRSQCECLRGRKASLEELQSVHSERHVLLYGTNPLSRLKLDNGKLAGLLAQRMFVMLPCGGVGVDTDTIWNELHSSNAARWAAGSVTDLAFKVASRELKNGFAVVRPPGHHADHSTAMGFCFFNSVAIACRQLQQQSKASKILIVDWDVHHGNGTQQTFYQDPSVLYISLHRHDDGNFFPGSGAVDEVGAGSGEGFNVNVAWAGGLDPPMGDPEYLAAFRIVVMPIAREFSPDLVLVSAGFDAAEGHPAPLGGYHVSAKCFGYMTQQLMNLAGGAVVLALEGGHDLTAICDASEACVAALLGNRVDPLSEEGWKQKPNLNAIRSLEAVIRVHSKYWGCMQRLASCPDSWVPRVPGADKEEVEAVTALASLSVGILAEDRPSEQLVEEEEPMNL", "test": "HDAC7 activity assay (fluorescence)"}, "human p300": {"biological_target": "human p300 (Homo sapiens, UniProt Q09472)", "sequence (Q09472 whole entry)": "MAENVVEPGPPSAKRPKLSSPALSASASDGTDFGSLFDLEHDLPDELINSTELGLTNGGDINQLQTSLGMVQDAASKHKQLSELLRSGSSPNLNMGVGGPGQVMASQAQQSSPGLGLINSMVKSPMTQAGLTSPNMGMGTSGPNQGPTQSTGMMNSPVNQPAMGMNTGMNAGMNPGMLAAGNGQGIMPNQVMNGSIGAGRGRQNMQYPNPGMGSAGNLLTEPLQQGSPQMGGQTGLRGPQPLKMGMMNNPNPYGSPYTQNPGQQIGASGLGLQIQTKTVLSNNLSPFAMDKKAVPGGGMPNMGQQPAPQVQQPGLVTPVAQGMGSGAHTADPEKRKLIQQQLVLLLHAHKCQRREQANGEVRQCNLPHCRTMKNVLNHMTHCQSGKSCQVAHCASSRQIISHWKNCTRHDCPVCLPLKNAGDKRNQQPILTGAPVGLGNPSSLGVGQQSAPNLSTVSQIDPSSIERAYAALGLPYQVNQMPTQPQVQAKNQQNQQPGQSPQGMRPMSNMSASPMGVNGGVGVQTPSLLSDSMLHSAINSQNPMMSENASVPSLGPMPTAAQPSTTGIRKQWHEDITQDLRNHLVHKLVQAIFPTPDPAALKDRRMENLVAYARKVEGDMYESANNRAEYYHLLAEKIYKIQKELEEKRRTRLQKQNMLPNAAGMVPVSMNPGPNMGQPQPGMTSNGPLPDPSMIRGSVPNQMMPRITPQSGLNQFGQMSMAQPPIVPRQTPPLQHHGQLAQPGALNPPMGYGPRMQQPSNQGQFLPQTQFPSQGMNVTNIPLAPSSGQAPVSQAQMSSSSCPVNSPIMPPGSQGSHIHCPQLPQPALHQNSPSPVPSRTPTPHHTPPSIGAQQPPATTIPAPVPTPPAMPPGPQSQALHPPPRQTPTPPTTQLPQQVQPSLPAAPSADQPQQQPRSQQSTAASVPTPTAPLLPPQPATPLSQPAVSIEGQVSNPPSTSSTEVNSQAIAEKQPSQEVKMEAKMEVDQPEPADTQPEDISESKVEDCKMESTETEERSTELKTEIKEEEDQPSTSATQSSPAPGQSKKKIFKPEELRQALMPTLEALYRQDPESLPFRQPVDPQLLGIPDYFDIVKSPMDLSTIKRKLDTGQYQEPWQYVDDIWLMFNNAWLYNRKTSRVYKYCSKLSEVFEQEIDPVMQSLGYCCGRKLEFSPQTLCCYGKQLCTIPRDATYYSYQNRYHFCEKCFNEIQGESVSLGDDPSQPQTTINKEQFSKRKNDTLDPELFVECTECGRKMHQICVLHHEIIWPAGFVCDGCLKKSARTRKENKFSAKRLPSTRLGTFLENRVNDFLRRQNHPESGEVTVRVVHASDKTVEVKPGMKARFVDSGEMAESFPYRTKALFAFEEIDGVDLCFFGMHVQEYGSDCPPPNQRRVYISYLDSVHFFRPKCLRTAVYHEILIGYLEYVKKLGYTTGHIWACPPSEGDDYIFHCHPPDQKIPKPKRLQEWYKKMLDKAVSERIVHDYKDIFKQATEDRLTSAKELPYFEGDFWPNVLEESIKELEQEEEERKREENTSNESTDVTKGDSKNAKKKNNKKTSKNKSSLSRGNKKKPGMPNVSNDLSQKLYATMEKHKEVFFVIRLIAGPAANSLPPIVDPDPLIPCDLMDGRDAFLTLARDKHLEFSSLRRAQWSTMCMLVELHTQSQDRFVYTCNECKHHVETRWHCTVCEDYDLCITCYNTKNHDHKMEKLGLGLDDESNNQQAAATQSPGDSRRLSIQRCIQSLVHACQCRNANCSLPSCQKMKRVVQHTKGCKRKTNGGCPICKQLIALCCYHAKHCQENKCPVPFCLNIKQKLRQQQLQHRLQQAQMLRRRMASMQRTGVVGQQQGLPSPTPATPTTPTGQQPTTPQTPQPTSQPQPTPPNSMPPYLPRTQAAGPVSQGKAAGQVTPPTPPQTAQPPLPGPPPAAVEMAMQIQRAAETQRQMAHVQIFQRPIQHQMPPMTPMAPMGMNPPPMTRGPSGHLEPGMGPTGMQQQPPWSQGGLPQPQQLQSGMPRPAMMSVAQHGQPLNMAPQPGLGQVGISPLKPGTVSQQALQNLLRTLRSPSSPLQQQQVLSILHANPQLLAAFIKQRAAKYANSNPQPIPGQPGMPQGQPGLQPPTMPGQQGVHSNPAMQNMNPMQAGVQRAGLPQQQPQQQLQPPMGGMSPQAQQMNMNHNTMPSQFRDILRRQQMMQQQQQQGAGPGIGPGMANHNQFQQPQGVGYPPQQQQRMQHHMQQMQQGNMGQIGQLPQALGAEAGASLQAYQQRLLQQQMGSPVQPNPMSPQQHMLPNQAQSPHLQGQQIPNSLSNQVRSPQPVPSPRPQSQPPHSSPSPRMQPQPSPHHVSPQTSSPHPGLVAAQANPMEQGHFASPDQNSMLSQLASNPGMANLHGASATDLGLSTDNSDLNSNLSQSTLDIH", "test": "p300 activation, in vitro assay", "assay_type": "biochemical"}},
  "note": "Where two headings read alike, the source gives them in different places.",
  "data": [
    {"smiles": "CCOc1cccc(OCCN(C)C)c1C(=O)Nc1ccc(Cl)c(C(F)(F)F)c1", "note": "[Compound 1]", "values": [
      {"measurement": "hippocampal BDNF levels after Aβ infusion", "setting": "BDNF", "value": "rescued"},
      {"measurement": "hippocampal BDNF levels after Aβ infusion", "setting": "BDNF; listed as YF2", "value": "rescued Aβ-induced decrease in hippocampal BDNF levels"},
      {"measurement": "hippocampal BDNF levels", "setting": "BDNF; vehicle-infused mice", "value": "increased BDNF levels"},
      {"measurement": "% Activity (HDAC6)", "setting": "HDAC6", "value": 94.62, "unit": "%"},
      {"measurement": "IC50", "setting": "HDAC7", "value": "> 200", "unit": "µM"},
      {"measurement": "effect on p300 activity", "setting": "human p300", "value": "increases p300 activity"},
      {"measurement": "EC50", "setting": "human p300; FIG. 16", "value": 790, "unit": "nM"},
      {"measurement": "effect on p300 activity", "setting": "human p300; listed as compound 1", "value": "did not interfere with p300"}
    ]}
  ]
}
